Values after ≈ are worked out from the molar mass of the structure shown. Active and inactive are the calls of the source. The calls are words filed in the database; no cut-off is given here.
Assays:
[1] = target: T1, UDP-N-acetylglucosamine 1-carboxyvinyltransferase (Escherichia coli K-12, UniProt P0A749); assay: Inhibition of recombinant Escherichia coli MurA expressed in Escherichia coli NiCo21 using UNAG and PEP as substrate preincubated for 30 mins in presence of UNAG followed by PEP substrate addition and measured after 15 mins by malachite green based colorimetric assay
[2] = Thiol reactivity of compound at pH 7.4 buffer assessed as fold decrease by measuring second order rate constant at 100 uM and measured for 4 hrs every 5 mins in presence of DTNB and TCEP by microplate reader analysis relative to Iodoacetamide; format: physicochemical; conditions: pH 7.4, 4 h
[3] = Thiol reactivity of compound at pH 7.4 buffer at 100 uM and measured for 4 hrs every 5 mins in presence of DTNB and TCEP by microplate reader analysis; format: physicochemical; conditions: pH 7.4, 4 h
[4] = target: UDP-N-acetylglucosamine 1-carboxyvinyltransferase (Escherichia coli K-12) (UniProt P0A749); assay: Inhibition of recombinant Escherichia coli MurA expressed in Escherichia coli NiCo21 using UNAG and PEP as substrate and measured for 15 mins by malachite green based colorimetric assay
[5] = target: T1, UDP-N-acetylglucosamine 1-carboxyvinyltransferase; assay: Inhibition of recombinant Escherichia coli MurA expressed in Escherichia coli NiCo21 using UNAG and PEP as substrate preincubated for 15 mins in presence of UNAG followed by PEP substrate addition and measured after 15 mins by malachite green based colorimetric assay
[6] = target: UDP-N-acetylglucosamine 1-carboxyvinyltransferase (Escherichia coli K-12) (UniProt P0A749); assay: (§1) Irreversible inhibition of recombinant Escherichia coli MurA expressed in Escherichia coli NiCo21 assessed as residual activity using UNAG and PEP as substrate at 400 uM preincubated for 30 mins in presence of UNAG followed by PEP substrate addition and measured after 15 mins by malachite green based colorimetric assay; conditions: time 45.0 min
[7] = target: UDP-N-acetylglucosamine 1-carboxyvinyltransferase (Escherichia coli K-12) (UniProt P0A749); assay: as §1, with “followed by 100 fold dilution and PEP substrate” for “followed by PEP substrate”; conditions: time 45.0 min
[8] = target: UDP-N-acetylglucosamine 1-carboxyvinyltransferase (Escherichia coli K-12) (UniProt P0A749); assay: Irreversible inhibition of recombinant Escherichia coli MurA expressed in Escherichia coli NiCo21 using UNAG and PEP as substrate assessed as second-order rate constant for enzyme inactivation, ratio of Kinact/Ki preincubated for 30 mins in presence of UNAG followed by 100 fold dilution and PEP substrate addition and measured after 15 mins by malachite green based colorimetric assay; conditions: time 45.0 min
[9] = target: UDP-N-acetylglucosamine 1-carboxyvinyltransferase (Escherichia coli K-12) (UniProt P0A749); assay: Binding affinity to UNAG activated recombinant Escherichia coli MurA Cys115 residue at 5 mM incubated for 30 mins in presence of UNAG by LC-MS/MS analysis
[10] = system: Staphylococcus aureus; assay: Antibacterial activity against Staphylococcus aureus ATCC 29213 assessed as bacterial growth inhibition at <= 128 ug/ml incubated for 24 hrs by broth dilution method; format: functional, organism-based; conditions: dose <= 128.0 µg/ml
[11] = system: Escherichia coli; assay: Antibacterial activity against Escherichia coli ATCC 25922 assessed as bacterial growth inhibition at <=128 ug/ml incubated for 24 hrs by broth dilution method; format: functional, organism-based; conditions: dose <= 128.0 µg/ml
[12] = target: UDP-N-acetylglucosamine 1-carboxyvinyltransferase (Escherichia coli K-12) (UniProt P0A749); assay: as §1, with “Inhibition” for “Irreversible inhibition”, “500” for “400”; conditions: time 45.0 min
[13] = system: Staphylococcus aureus; assay: Antibacterial activity against Staphylococcus aureus ATCC 29213 assessed as bacterial growth inhibition incubated for 24 hrs by broth dilution method; format: functional
[14] = system: Escherichia coli; assay: Antibacterial activity against Escherichia coli ATCC 25922 assessed as bacterial growth inhibition incubated for 24 hrs by broth dilution method; format: functional

Sequence of UDP-N-acetylglucosamine 1-carboxyvinyltransferase (Escherichia coli K-12) (P0A749 whole entry): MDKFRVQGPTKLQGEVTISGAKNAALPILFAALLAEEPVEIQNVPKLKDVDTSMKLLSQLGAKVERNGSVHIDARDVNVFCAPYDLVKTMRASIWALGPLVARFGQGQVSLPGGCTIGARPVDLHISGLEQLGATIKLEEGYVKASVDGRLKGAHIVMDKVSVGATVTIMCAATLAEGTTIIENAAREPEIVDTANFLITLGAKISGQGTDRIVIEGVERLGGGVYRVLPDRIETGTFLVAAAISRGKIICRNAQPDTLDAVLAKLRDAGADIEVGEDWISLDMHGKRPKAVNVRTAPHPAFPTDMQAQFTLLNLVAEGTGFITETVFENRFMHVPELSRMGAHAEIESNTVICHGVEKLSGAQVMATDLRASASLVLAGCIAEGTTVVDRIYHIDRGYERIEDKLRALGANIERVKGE
T1 sequence (P0A749 whole entry): as above

With O=C(CCl)NC1CCCC2CCCCC21 (stereo unspecified) the IC50 [1] was 39 µM, the “fold change (FC)” value [2] was 33 and the Drug metabolism [3] was “Metabolite_Notdetected”. For the same compound, the inhibition [4] was “inactive”, the IC50 [5] was 400 µM and the Activity [6] was 1.6%. The Activity [7] was “inactive”, the Ratio [8] was 4.78 10^-3/µM/min and the Activity [9] was “Active”. For the same compound, the Activity [10] was “inactive” and the Activity [11] was “inactive”.
In the case of O=C(CCl)N1CCN(CCC2CCCCC2)CC1, the Activity [12] is reported as 81%, the “fold change (FC)” value [2] is reported as 3 and the Drug metabolism [3] is reported as “Metabolite_Detected”. It also gave an MIC [13] of 4 µg/mL (≈ 14.7 µM) and an MIC [14] of 16 µg/mL (≈ 58.6 µM).

Source: ChEMBL document CHEMBL5352428, “Covalent inhibitors of bacterial peptidoglycan biosynthesis enzyme MurA with chloroacetamide warhead” (Eur J Med Chem, 2022)
